Values quoted from earlier work as cited in patent US20220175829A1, “Antimicrobial Compositions” (Matoke Holdings Limited, priority 2019, published 2022).

Conditions: 20° C. and 1 atm

solubility: about 375 g/100 g water
Structure (SMILES): O=C(CO)[C@@H](O)[C@H](O)[C@H](O)CO [Fructose]
